What all share (assay type): cell-based
Data set [1] is described as follows: Minimal toxic dose in the plaque reduction assay. Conditions: monkey, HSV-Vero cells, read-out: MTD (minimal toxic dose). How it is done:
(§1) Antiviral activity for each component of BU-4224V was evaluated by the dye uptake and the plaque reduction assay using herpes simplex virus type 1 (KOS strain) infection in Vero cells. In the dye uptake assay, 200 μl of the Vero cell suspension containing 1.6×10^4 cells was poured into each well of 96-well microplates, and then 50 μl of medium containing a test compound at various concentrations was added to each well. The viral suspension (50 μl ) containing approximately 30X TCID50 was inoculated to each well. For cytotoxicity tests, the same set of wells without viruses were prepared. After incubation at 37° C. for 72 hours under the humidified 5% CO2 -95% air environment, the degree of inhibition of the virus-induced cytopathic effect and the drug-induced cytotoxicity were determined by means of the uptake of neutral red. […] Acyclovir was used as a reference compound of anti-HSV activity. The antiviral activity of BU-4224V was also evaluated by the conventional plaque reduction assay method using a 24-well microplate.
(In general: Plaques are areas of infected cells; plaque reduction assays count them against a control.)

The nature of the next data set: in vitro. Conditions: monkey, vero cells. How it is done: as §1
The subject of data set [2] is herpes simplex virus type 1 (KOS strain). The data set can be described thus: Dye uptake assay, HSV-1 infection in Vero cells. Conditions: Human alphaherpesvirus 1, HSV-1, Vero cells, 72 hours, read-out: ID50 (the source's name). How it is done: as §1
For data set [3] the test system is unchanged. Description: Plaque reduction assay, HSV-1 infection in Vero cells. As to conditions: Human alphaherpesvirus 1, HSV-1, Vero cells, read-out: ID50 (the source's name). The procedure:
as §1

≈ marks a conversion by molar mass, not a printed value.

As a reminder, the CC50 is the concentration that lowers cell viability or growth by half. A high value points to better tolerance by the cells. For the molecule `Nc1nc2c(ncn2COCCO)c(=O)[nH]1` [Acyclovir], in data set [1], the MCC is more than 100 µg/mL. Moreover, the CC50 at 72 h in “in vitro” was more than 100 µg/mL. Further, the IC50 in data set [2] came to 0.09 µg/mL (≈ 0.4 µM); in data set [3], 0.27 µg/mL (≈ 1.2 µM).

Source of the values: patent US5466450A, “Antiviral antibiotic BU-4224V” (priority 1993, dated 1995).
